Laboratory results as given in US10183942B2, “JAK kinase inhibitor compounds for treatment of respiratory disease” (THERAVANCE BIOPHARMA R&D IP, LLC, priority 2015, dated 2019).

Tests used:
JAK1 = JAK1 (Homo sapiens (Human), UniProt P23458)
[1] = test system: IL-13 induced pSTAT6 induction in lung tissue; assay: Murine model of IL-13 induced pSTAT6 induction in lung tissue; type: in vivo; conditions: mouse lung; for inhibition of STAT6 phosphorylation in the pharmacodynamic assay: IL-13 challenge 4 h after dose; for lung concentration smaller than that of the corresponding compound of the invention by a factor: pharmacodynamic assay, C-1 vs 1, C-2 vs 7, C-3 vs 13, C-4 vs 6
Protocol: 11-13 is an important cytokine underlying the pathophysiology of asthma (Kudlacz et al. Eur. J. Pharmacol, 2008, 582, 154-161). IL-13 binds to cell surface receptors activating members of the Janus family of kinases (JAK) which then phosphorylate STAT6 and subsequently activates further transcription pathways. In the described model, a dose of IL-13 was delivered locally into the lungs of mice to induce the phosphorylation of STAT6 (pSTAT6) which is then measured as the endpoint.
Adult balb/c mice from Harlan were used in the assay. On the day of study, animals were lightly anesthetized with isoflurane and administered either vehicle or test compound (0.5 mg/mL, 50 μL total volume over several breaths) via oral aspiration. Animals were placed in lateral recumbency post dose and monitored for full recovery from anesthesia before being returned to their home cage. Four hours later, animals were once again briefly anesthetized and challenged with either vehicle or IL-13 ([…] total dose delivered, 50 μL total volume) via oral aspiration before being monitored for recovery from anesthesia and returned to their home cage. One hour after vehicle or IL-13 administration, lungs were collected for both pSTAT6 detection using an anti-pSTAT6 ELISA (rabbit mAb capture/coating antibody; mouse mAb detection/report antibody: anti-pSTAT6-pY641; secondary antibody: anti-mouse IgG-HRP) and analyzed for total drug concentration as described above in Assay 4.
Selected compounds of the invention were tested in the assay. Activity in the model is evidenced by a decrease in the level of pSTAT6 present in the lungs of treated animals at 5 hours compared to the vehicle treated, IL-13 challenged control animals. The difference between the control animals which were vehicle-treated, IL-13 challenged and the control animals which were vehicle-treated, vehicle challenged dictated the 0% and 100% inhibitory effect, respectively, in any given experiment.

[2] = Pharmacokinetics in plasma and lung in mouse; type: in vivo; conditions: oral aspiration 0.2 mg/mL 50 uL, lung AUC / plasma AUC
Protocol: Plasma and lung levels of test compounds and ratios thereof were determined in the following manner. BALB/c mice from Charles River Laboratories were used in the assay. Test compounds were individually formulated in 20% propylene glycol in pH 4 citrate buffer at a concentration of 0.2 mg/mL and 50 uL of the dosing solution was introduced into the trachea of a mouse by oral aspiration. At various time points (typically 0.167, 2, 6, 24 hr) post dosing, blood samples were removed via cardiac puncture and intact lungs were excised from the mice. Blood samples were centrifuged (Eppendorf centrifuge, 5804R) for 4 minutes at approximately 12,000 rpm at 4° C. to collect plasma. Lungs were padded dry, weighed, and homogenized at a dilution of 1:3 in sterile water. Plasma and lung levels of test compound were determined by LC-MS analysis against analytical standards constructed into a standard curve in the test matrix. A lung to plasma ratio was determined as the ratio of the lung AUC in μg hr/g to the plasma AUC in […], where AUC is conventionally defined as the area under the curve of test compound concentration vs. time.

[3] = test system: interleukin-13 induced STAT6 phosphorylation in BEAS-2B human lung epithelial cells; assay: Cellular JAKI potency assay (AlphaScreen, BEAS-2B); type: cell-based; conditions: C-1 vs 1, C-2 vs 7, C-3 vs 13, C-4 vs 6
[4] = Dynamic moisture sorption assessment; type: physicochemical
Protocol: Dynamic moisture sorption (DMS) measurement was performed using a VTI atmospheric microbalance, SGA-100 system (VTI Corp., Hialeah, Fla. 33016). A weighed sample was used and the humidity was lowest possible value (close to 0% RH) at the start of the analysis. The DMS analysis consisted of an initial drying step (˜0% RH) for 120 minutes, followed by two cycles of sorption and desorption with a scan rate of 5% RH/step over the humidity range of 5% RH to 90% RH. The DMS run was performed isothermally at 25° C.

Chain of JAK1 (P23458 whole entry): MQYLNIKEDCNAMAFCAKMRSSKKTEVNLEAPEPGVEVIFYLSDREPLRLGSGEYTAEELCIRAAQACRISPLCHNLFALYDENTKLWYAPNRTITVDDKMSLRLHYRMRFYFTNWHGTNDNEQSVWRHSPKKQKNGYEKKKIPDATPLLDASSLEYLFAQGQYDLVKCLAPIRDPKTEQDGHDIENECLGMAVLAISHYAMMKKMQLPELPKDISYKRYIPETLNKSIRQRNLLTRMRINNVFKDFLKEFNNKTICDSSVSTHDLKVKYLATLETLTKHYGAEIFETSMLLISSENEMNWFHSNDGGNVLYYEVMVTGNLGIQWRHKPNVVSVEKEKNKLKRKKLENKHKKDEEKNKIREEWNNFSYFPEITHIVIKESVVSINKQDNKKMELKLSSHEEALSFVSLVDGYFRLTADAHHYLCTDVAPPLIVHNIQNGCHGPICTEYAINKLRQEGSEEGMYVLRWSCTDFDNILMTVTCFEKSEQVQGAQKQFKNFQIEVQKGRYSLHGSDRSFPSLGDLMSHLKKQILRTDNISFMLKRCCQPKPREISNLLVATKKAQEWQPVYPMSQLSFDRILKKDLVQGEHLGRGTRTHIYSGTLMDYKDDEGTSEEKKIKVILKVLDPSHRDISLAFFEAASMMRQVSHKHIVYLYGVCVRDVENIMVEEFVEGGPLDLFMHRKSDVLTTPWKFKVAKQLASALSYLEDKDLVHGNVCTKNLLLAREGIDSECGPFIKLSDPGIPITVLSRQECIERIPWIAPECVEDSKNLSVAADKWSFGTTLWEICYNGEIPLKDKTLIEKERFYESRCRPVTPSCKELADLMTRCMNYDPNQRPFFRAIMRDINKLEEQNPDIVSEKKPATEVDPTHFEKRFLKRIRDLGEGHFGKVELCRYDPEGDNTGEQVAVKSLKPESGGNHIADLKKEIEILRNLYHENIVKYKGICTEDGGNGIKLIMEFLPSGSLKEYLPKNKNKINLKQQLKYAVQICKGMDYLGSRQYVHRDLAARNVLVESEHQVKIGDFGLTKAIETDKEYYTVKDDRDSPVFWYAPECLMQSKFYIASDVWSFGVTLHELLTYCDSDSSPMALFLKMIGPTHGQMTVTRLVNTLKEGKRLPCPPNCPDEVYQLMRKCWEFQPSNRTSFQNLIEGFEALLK

| Lung to Plasma ratio Assay 4 [2] | Compound | Ki (JAK1) [pM] | further results |
| --- | --- | --- | --- |
| – | CCc1cc(O)c(F)cc1-c1ccc2c(-c3nc4c([nH]3)CCN(C3CN(CCO)C3)C4)n[nH]c2c1 [Example 1-1] | < 100 | – |
| – | CCc1cc(O)c(F)cc1-c1ccc2c(-c3nc4c([nH]3)CCN(C3CN(CC)C3)C4)n[nH]c2c1 [Example 1-3] | < 100 | – |
| – | CCc1cc(O)c(F)cc1-c1ccc2c(-c3nc4c([nH]3)CCN(C3CN(CCOC)C3)C4)n[nH]c2c1 [Example 1-6] | < 100 | – |
| – | CCc1cc(O)c(F)cc1-c1ccc2c(-c3nc4c([nH]3)CCN(C3CN(CCC#N)C3)C4)n[nH]c2c1 [Example 1-8] | < 100 | – |
| – | CCc1cc(O)c(F)cc1-c1ccc2c(-c3nc4c([nH]3)CCN(C3CN(C5CCS(=O)(=O)C5)C3)C4)n[nH]c2c1 (stereo not shown) [Example 1-15] | – | inhibition of STAT6 phosphorylation in the pharmacodynamic assay [1]: exceptions |
| – | CCc1cc(O)c(F)cc1-c1ccc2c(-c3nc4c([nH]3)CCN(C3CCNCC3)C4)n[nH]c2c1 [Example 2-3] | < 100 | – |
| – | CCc1cc(O)c(F)cc1-c1ccc2c(-c3nc4c([nH]3)CCN(CCNC3(C#N)CC3)C4)n[nH]c2c1 [Example 3-1] | – | inhibition of STAT6 phosphorylation in the pharmacodynamic assay [1]: exceptions |
| A (A denotes a ratio >100) | CCc1cc(O)c(F)cc1-c1ccc2c(-c3nc4c([nH]3)CCN(CCN(C)CC(C)C)C4)n[nH]c2c1 [Example 3-33] | – | – |
| A (A denotes a ratio >100) | CCc1cc(O)c(F)cc1-c1ccc2c(-c3nc4c([nH]3)CCN(CCNC3CC(OC)C3)C4)n[nH]c2c1 (stereo not shown) [Example 8, 5-Ethyl-2-fluoro-4-(3-(5-(2-((3-methoxycyclobutyl)amino)ethyl)-4,5,6,7-tetrahydro-1H-imidazo[4,5-c]pyridin-2-yl)-1H-indazol-6-yl)phenol] | – | – |
| – | CCc1cc(O)c(F)cc1-c1ccc2c(-c3nc4c([nH]3)CCN(C3CCNC3)C4)n[nH]c2c1 (stereo not shown) [Example 9-1] | < 100 | – |
| A (A denotes a ratio >100) | CCc1cc(O)c(F)cc1-c1ccc2c(-c3nc4c([nH]3)CCN(C[C@@H]3CCCN3C)C4)n[nH]c2c1 [Example 11, (S)-5-ethyl-2-fluoro-4-(3-(5-((1-methylpyrrolidin-2-yl)methyl)-4,5,6,7-tetrahydro-1H-imidazo[4,5-c]pyridin-2-yl)-1H-indazol-6-yl)phenol] | – | – |
| A (A denotes a ratio >100) | CCc1cc(O)c(F)cc1-c1ccc2c(-c3nc4c([nH]3)CCN(C[C@H]3COCCN3)C4)n[nH]c2c1 [Example 13, (S)-5-Ethyl-2-fluoro-4-(3-(5-(morpholin-3-ylmethyl)-4,5,6,7-tetrahydro-1H-imidazo[4,5-c]pyridin-2-yl)-1H-indazol-6-yl)phenol] | – | – |
| A (A denotes a ratio >100) | CCc1cc(O)c(F)cc1-c1ccc2c(-c3nc4c([nH]3)CCN(C[C@@H]3COCCN3)C4)n[nH]c2c1 [Example 14, (R)-5-Ethyl-2-fluoro-4-(3-(5-(morpholin-3-ylmethyl)-4,5,6,7-tetrahydro-1H-imidazo[4,5-c]pyridin-2-yl)-1H-indazol-6-yl)phenol] | – | – |
| A (A denotes a ratio >100) | CCc1cc(O)c(F)cc1-c1ccc2c(-c3nc4c([nH]3)CCN(CCN3CCC[C@@H]3C)C4)n[nH]c2c1 [Example 15, (S)-5-ethyl-2-fluoro-4-(3-(5-(2-(2-methylpyrrolidin-1-yl)ethyl)-4,5,6,7-tetrahydro-1H-imidazo[4,5-c]pyridin-2-yl)-1H-indazol-6-yl)phenol] | – | – |
| – | CCc1cc(O)c(F)cc1-c1ccc2c(-c3nc4c([nH]3)CCN(C3CC(C)C3)C4)n[nH]c2c1 (stereo not shown) [Example C-1, 5-Ethyl-2-fluoro-4-(3-(5-(3-methylcyclobutyl)-4,5,6,7-tetrahydro-1H-imidazo[4,5-c]pyridin-2-yl)-1H-indazol-6-yl)phenol] | – | lung concentration smaller than that of the corresponding compound of the invention by a factor [1]: 36 |
| – | CCc1cc(O)c(F)cc1-c1ccc2c(-c3nc4c([nH]3)CCN(CCC(C)C)C4)n[nH]c2c1 [Example C-2] | – | fold less potent than the corresponding compound of the invention in the BEAS-2B cellular assay [3]: 6 fold; lung concentration smaller than that of the corresponding compound of the invention by a factor [1]: 52 |
| – | CCc1cc(O)c(F)cc1-c1ccc2c(-c3nc4c([nH]3)CCN(CC3CCCOC3)C4)n[nH]c2c1 (stereo not shown) [Example C-3] | – | fold less potent than the corresponding compound of the invention in the BEAS-2B cellular assay [3]: 3 fold; lung concentration smaller than that of the corresponding compound of the invention by a factor [1]: 13 |
| – | CCc1cc(O)c(F)cc1-c1ccc2c(-c3nc4c([nH]3)CCN(C3CCC(C)CC3)C4)n[nH]c2c1 (stereo not shown) [Example C-4] | – | fold less potent than the corresponding compound of the invention in the BEAS-2B cellular assay [3]: 6 fold; lung concentration smaller than that of the corresponding compound of the invention by a factor [1]: 23 |
| – | CCc1cc(O)c(F)cc1-c1ccc2c(-c3nc4c([nH]3)CCN(C3CCN(C)CC3)C4)n[nH]c2c1 [crystalline hydrate, Crystalline hydrate of 5-ethyl-2-fluoro-4-(3-(5-(1-methylpiperidin-4-yl)-4,5,6,7-tetrahydro-1H-imidazo[4,5-c]pyridin-2-yl)-1H-indazol-6-yl)phenol] | – | weight gain in dynamic moisture sorption ([4]; 5% to 90% relative humidity, about 25° C.): less than 0.12%; hygroscopicity ([4]; two cycles of sorption and desorption): non-hygroscopic |

| Compound | Lung to Plasma ratio Assay 4 [2] | Ki (JAK1) [pM] | further results |
| --- | --- | --- | --- |
| CCc1cc(O)c(F)cc1-c1ccc2c(-c3nc4c([nH]3)CCN(CC3CNC3)C4)n[nH]c2c1 [Example 14-7] | A (A denotes a ratio >100) | < 100 | – |
